In data set [1] the target is T1, CTX-M-96 β-lactamase (Escherichia coli, UniProt Q9EXV5, N92S). The data set can be described thus: IC50 after 5-min preincubation, nitrocefin reporter substrate. To be noted: 100 μM nitrocefin. It counts as biochemical. The method, then: (§1) Using nitrocefin as an indicator substrate and 5 min incubation before steady-state velocities were determined, 50% inhibitory concentrations (IC50s) in the nanomolar range for KPC-2 and CTX-M-96 β-lactamases were measured, and both inhibitors bound CTX-M-96 with greater affinity than KPC-2 (Table 1). The IC50 was approximatively 40-fold lower for CTX-M-96 than KPC-2 for both inhibitors. The IC50 of S02030 is 2 nM against CTX-M-96 and 80 nM against KPC-2 ([12]). […] The on rates (k2/K) for S02030 and MB_076 versus CTX-M-96 were 24,000 M^−1 s^−1 and 3,900 M^−1 s^−1, respectively, and those for KPC-2 were 12,000 M^−1 s^−1 and 1,200 M^−1 s^−1 respectively (Table 1). […] The k2/K values for both BATSIs against CTX-M-96 were lower than those of avibactam ([16]). […] Kinetic plots for CTX-M-96–S02030, CTX-M-96–MB_076, and KPC-2–MB_076 are shown in Fig. S1 in the supplemental material.
(§2) The inhibition by BATSIs is assumed to follow a reversible mechanism according to the following scheme: (1) E + I ↔ E:I ↔ E-I^*↔ E-I^** where E represents the enzyme, I the BATSI, E:I the Michaelis complex, E-I* the enzyme-inhibitor complex as the acylation transition state analog, and E-I** the deacylation transition state intermediate, according to previous models ([15]). The half-maximal inhibitory concentration (IC50) was measured after a 5-min preincubation of the enzyme and each BATSI at increasing concentrations, with 100 μM nitrocefin as the reporter substrate, as previously described ([12], [13]).

The target of data set [2] is T1, CTX-M-96 β-lactamase. The data set can be described thus: On rate (k2/K) from progress curves with nitrocefin. Type of data set: biochemical. The method, then: (§3) To determine the on rate (k2/K), progress curves were obtained by incubating KPC-2 or CTX-M-96 with increasing concentrations of BATSIs and 100 μM nitrocefin as the reporter substrate. Progress curves were fitted to equation 2 to obtain kobs values, by nonlinear least-squares fitting of the data, and k2/K was determined from equation 3. (2) A = vf * t + (v0 − vf) × (1 − e^−kobst)/kobserved + A0 (3) kobserved = k−2 + (k2/K) × ([I]/(1 + ([S]/Km nitrocefin))) In equation 2, A is absorbance at 482 nm, vf is final velocity, t is time, v0 is initial velocity, and A0 is initial absorbance at 482 nm. In equation 3, [I] is the concentration of BATSI and [S] is the concentration of nitrocefin. The data were plotted as kobs versus [BATSI], and the k2/K value was obtained by correcting the value for the slope of the line for the concentration and affinity of nitrocefin (Equation 4). (4) k2/Kcorrected = k2/Kobserved × (([S]/Km nitrocefin) + 1)

The target in data set [3] is T2, KPC-2 β-lactamase (Klebsiella pneumoniae, UniProt Q9F663).
T2 construct: made in house; host or cells: E. coli BL21 Star
Described as above. It counts as biochemical. The method, then: as §3

Data set [4] concerns the target T1, CTX-M-96 β-lactamase. The data set can be described thus: Off rate (koff) after preincubation with saturating BATSI. Type of data set: biochemical.
The nature of data set [5]: Solubility as DMSO stock solution. Type of data set: physicochemical. Particulars: organic solvent or mixture.
In data set [6] the target is T2, KPC-2 β-lactamase. Also noted: method as in PMID 26729496. To be noted: published previously; cited from earlier work.
Data set [7] deals with T2, KPC-2 β-lactamase. Also noted: method as in PMID 26729496. To be noted: off rate, published previously; cited from earlier work.
Data set [8] relates to pan-drug-resistant KPC-producing K. pneumoniae clinical isolate. Also noted: method as in our unpublished data. Particulars: paired with cefepime; separate paper and previous results, ref our unpublished data; cited from earlier work.
The test system of data set [9] is Escherichia coli DH10B carrying blaSHV, blaKPC-2, and blaKPC-3 variants. Also noted: method as in PMID 26729496. Particulars: previous studies; cited from earlier work.
A further data set has as its target CTX-M-96. Also noted: method as in PMID 26228623. To be noted: previously reported; cited from earlier work.
Data set [10] deals with T2, KPC-2 β-lactamase. In words: IC50 after 5-min preincubation, nitrocefin reporter substrate. Particulars: 100 μM nitrocefin. Type of data set: biochemical. The method, then: as §1, §2
The target in data set [11] is T2, KPC-2 β-lactamase. The data set can be described thus: Off rate (koff) after preincubation with saturating BATSI. It counts as biochemical. The method, then: The koff value was determined by mixing KPC-2 or CTX-M-96 with 100 μM nitrocefin after preincubating 5 min with a saturating amount of each BATSI, and progress curves were fitted to a single exponential decay equation as previously described ([12][–][14]).

This is an account of results in PMC9872677, “Boronic Acid Transition State Inhibitors as Potent Inactivators of KPC and CTX-M β-Lactamases: Biochemical and Structural Analyses” (Antimicrobial Agents and Chemotherapy, 2023).

The IC50 is the concentration at which inhibition is half-maximal. For orientation: solubility means the concentration that dissolves in the medium under given conditions. As usually defined, the kinact/KI is the second-order rate constant of inactivation.

Values after ≈ are worked out from the molar mass of the structure shown. Like-named read-outs stand apart in the source and are kept apart here.

With `O=C(Cc1cccs1)N[C@@H](Cn1cc(C(=O)O)nn1)B(O)O` [S02030], the results for the IC50 against CTX-M-96 β-lactamase [1] and at KPC-2 β-lactamase [6] were 2 ± 0.2 nM and 80 ± 2 nM, respectively. Also, on CTX-M-96 β-lactamase [2], the k2/K is listed as 24,000 M^−1 s^−1. Further, the “k2/K fold higher compared to MB_076” value at KPC-2 β-lactamase [3] is reported as 10 fold. Moreover, the Koff entry at CTX-M-96 β-lactamase [4] is on record as “(0.75 ± 0.03) × 10^−3 s^−1”; on KPC-2 β-lactamase [7], “(0.46 ± 0.02) × 10^−3 s^−1”. In addition, in data set [5], the solubility was found to be 250 mM (≈ 81 mg/mL). For the same compound, the “restoration of cefepime activity” value in data set [8] was “restore cefepime activity”. Further, the “restoration of susceptibility combined with cefepime” value in data set [9] is on record as “restored susceptibility”.

Consider `O=C(O)[C@H]1/C(=C/CO)O[C@@H]2CC(=O)N21` [clavulanic acid], for which the “inactivation efficiency value (kinact/KI)” value at CTX-M-96 is 45,000 M^−1 s^−1.

For the compound `Nc1nnc(SCC(=O)N[C@@H](Cn2cc(C(=O)O)nn2)B(O)O)s1` [MB_076], the figures for the IC50 at CTX-M-96 β-lactamase [1] and on KPC-2 β-lactamase [10] were 4 ± 0.5 nM and 135 ± 20 nM, respectively. For the same compound, the k2/K on CTX-M-96 β-lactamase [2] was 3,900 M^−1 s^−1; on KPC-2 β-lactamase [3] (on rate), 1,200 M^−1 s^−1. Moreover, the kinact/KI at KPC-2 β-lactamase [3] (on rate) was determined as 1200 M⁻¹ s⁻¹. For the same compound, the Koff result at CTX-M-96 β-lactamase [4] is “(0.62 ± 0.05) × 10^−3 s^−1”; on KPC-2 β-lactamase [11], 0.001 s⁻¹. Besides, in data set [5], the solubility was found to be 1000 mM (≈ 373 mg/mL). For the same compound, the “restoration of cefepime activity” value in data set [8] was “restore cefepime activity”.
